# Where two headings read alike, the source gives them in different places.
# How the values were obtained:
# MK-3 = MK-3 (Homo sapiens, UniProt Q16644); assay: MK-3 inhibition IC50 (similar method to MK-2, with appropriate modifications); assay type: biochemical; details: read-out: MK-3 Avg. IC50
# Protocol: In practice, the selectivity of a cyclic pyrazole MK-2 inhibitor varies depending upon the condition under which the test is performed and on the inhibitors being tested. However, for the purposes of this specification, the selectivity of a cyclic pyrazole MK-2 inhibitor inhibitor can be measured as a ratio of the in vitro or in vivo IC50 value for inhibition of MK-3, divided by the IC50 value for inhibition of MK-2 (IC50 MK-3/IC50 MK-2). […] The MK-2 or MK-3 inhibiting activity of any of the compounds described herein can be determined by any one of several methods that are well known to those having skill in the art of enzyme activity testing. […] A similar method, with appropriate modifications, Can be used to measure MK-3 inhibitory activity. In addition, the efficacy of one of the present MK-2 inhibiting compounds in therapeutic applications can be determined by testing for inhibition of TNFα production in cell culture and in animal model assays.
# MAPKAPK2 (MK-2) = MAPKAPK2 (MK-2) (Homo sapiens, UniProt P49137); assay: Determination of MK-2 IC50 (HSP-peptide phosphorylation, anion exchange resin capture assay); assay type: biochemical
# Sequence of MAPKAPK2 (MK-2) (P49137 whole entry, species assumed): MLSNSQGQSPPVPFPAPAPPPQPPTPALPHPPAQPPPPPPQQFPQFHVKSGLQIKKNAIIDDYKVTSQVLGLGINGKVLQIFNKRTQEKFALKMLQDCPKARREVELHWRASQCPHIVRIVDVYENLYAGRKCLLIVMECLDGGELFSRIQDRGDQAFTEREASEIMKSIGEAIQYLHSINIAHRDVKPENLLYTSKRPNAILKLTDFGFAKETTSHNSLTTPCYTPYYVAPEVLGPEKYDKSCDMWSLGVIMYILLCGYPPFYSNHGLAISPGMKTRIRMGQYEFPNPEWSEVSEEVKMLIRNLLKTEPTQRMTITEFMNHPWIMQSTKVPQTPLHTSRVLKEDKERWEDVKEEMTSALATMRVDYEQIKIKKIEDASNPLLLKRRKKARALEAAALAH
# Protocol: Determination of MK-2 IC50:
# Recombinant MAPKAPK2 was phosphorylated at a concentration of 42-78 μM by incubation with 0.23 μM of active p38α in 50 mM HEPES, 0.1 mM EDTA, 10 mM magnesium acetate, and 0.25 mM ATP, pH 7.5 for one hour at 30° C.
# The phosphorylation of HSP-peptide ([…]) by MAPKAPK2 was measured using an anion exchange resin capture assay method. The reaction was carried out in 50 mM β-glycerolphosphate, 0.04% BSA, 10 mM magnesium acetate, 2% DMSO and 0.8 mM dithiotheritol, pH 7.5 in the presence of the HSP-peptide with 0.2 μCi [γ^33P]ATP and 0.03 mM ATP. The reaction was initiated by the addition of 15 nM MAPKAPK2 and was allowed to incubate at 30° C. for 30 min. The reaction was terminated and [γ^33P]ATP was removed from solution by the addition of 150 μl of AG 1×8 ion exchange resin in 900 mM sodium formate pH 3.0. A 50 μl aliquot of head volume was removed from the quenched reaction mixture and added to a 96-well plate, 150 μl of Microscint-40 (Packard) was added and the amount of phosphorylated-peptide was determined. Allow the Microscint to sit in the plates for 60 minutes prior to counting.
# Compounds are evaluated as potential inhibitors of the MK-2 kinase by measuring their effects on MK-2 phosphorylation of the peptide substrate. Compounds may be screened initially at two concentrations prior to determination of IC50 values. Screening results are expressed as percent inhibition at the concentrations of compound tested. For IC50 value determinations, Compounds are tested at six concentrations in ten-fold serial dilutions with each concentration tested in triplicate. Results are expressed as IC50 values in micromolar. The assay is performed at a final concentration of 2% DMSO.
# [1] = Table 1, phenoxypyrazole MK-2 inhibitors
# [2] = Table 1, phenoxypyrazole MK-2 inhibitors, read-out: MK-2 Avg, IC50
# [3] = Table 2, pyrazolylpyrazole MK-2 inhibitors
# [4] = Table 2, pyrazolylpyrazole MK-2 inhibitors, read-out: MK-2 Avg. IC50
# Sequence of MK-3 (Q16644 whole entry, species assumed): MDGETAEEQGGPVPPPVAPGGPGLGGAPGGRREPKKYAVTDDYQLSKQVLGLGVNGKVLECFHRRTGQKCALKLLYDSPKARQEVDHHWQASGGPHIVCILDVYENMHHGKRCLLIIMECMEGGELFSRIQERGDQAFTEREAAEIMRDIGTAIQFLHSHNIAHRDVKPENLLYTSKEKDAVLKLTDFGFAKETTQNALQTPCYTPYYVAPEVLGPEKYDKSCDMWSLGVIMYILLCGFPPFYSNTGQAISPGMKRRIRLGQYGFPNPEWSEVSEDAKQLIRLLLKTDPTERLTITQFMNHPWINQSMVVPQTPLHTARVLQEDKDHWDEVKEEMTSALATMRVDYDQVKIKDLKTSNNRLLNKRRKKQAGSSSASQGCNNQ
compound,measurement,setting,value
COC(=O)c1[nH]nc2c1CCc1cc(O)c(O)cc1-2 [Example 64],IC50,MK-3; [1],> 200 µM
same,IC50,MAPKAPK2 (MK-2); [2],154 µM
NC(=O)c1[nH]nc2c1CCc1cc(O)ccc1-2 [Example 33],IC50,MK-3; [1],107 µM
same,IC50,MAPKAPK2 (MK-2); [2],39.2 µM
CCOC(=O)c1c2c(nn1CC(F)(F)F)-c1cn[nH]c1CC2 [Example 72],IC50,MK-3; [3],≥ 200 µM
same,IC50,MAPKAPK2 (MK-2); [4],≥ 200 µM
NCCCn1nc2c(c1C(=O)O)CCc1cnc(-c3cccc(C(F)(F)F)c3)cc1-2 [Example 12],IC50,MK-3,0.29 µM
same,IC50,MAPKAPK2 (MK-2); read-out: MK-2 Avg. IC50,0.0433 µM
O=C(O)c1c2c(nn1CCCNS(=O)(=O)Cc1ccc(Cl)cc1)-c1cc(-c3cnc4ccccc4c3)ncc1CC2 [Example 54],IC50,MK-3,6.46 µM
CCOC(=O)c1nn(-c2ccc(S(N)(=O)=O)cc2)c2c1CCc1cc(OC)c(OC)cc1-2 [Example 174],IC50,MK-3; [1],> 200 µM
same,IC50,MAPKAPK2 (MK-2); [2],> 200 µM
CC1Cc2cc(O)ccc2-c2n[nH]c(C(=O)O)c21 (stereo not shown) [Example 59],IC50,MK-3; [1],> 200 µM
same,IC50,MAPKAPK2 (MK-2); [2],148 µM
O=C(O)c1[nH]nc2c1CCc1cc(O)ccc1-2 [Example 24],IC50,MK-3; [1],> 200 µM
same,IC50,MAPKAPK2 (MK-2); [2],19.6 µM
O=C(O)c1c2c(nn1CCCNCCc1ccsc1)-c1cn[nH]c1CC2 [Example 8],IC50,MK-3; [3],48.5 µM
same,IC50,MAPKAPK2 (MK-2); [4],7.84 µM
CCOC(=O)c1nn(-c2ccc(S(N)(=O)=O)cc2)c2c1CCc1cc(OC)ccc1-2 [Example 178],IC50,MK-3; [1],> 200 µM
same,IC50,MAPKAPK2 (MK-2); [2],> 200 µM
O=C1NCCCn2nc3c(c21)CCc1cnc(-c2ccc(O)cc2)cc1-3 [Example 31],IC50,MK-3,2.56 µM
same,IC50,MAPKAPK2 (MK-2); read-out: MK-2 Avg. IC50,0.183 µM
NCCn1nc2c(c1C(=O)O)CCc1cc(O)c(Br)cc1-2 [Example 5],IC50,MK-3; [1],> 200 µM
same,IC50,MAPKAPK2 (MK-2); [2],2.14 µM
COc1cc2c(cc1-c1ccc(F)c(F)c1)-c1nn(CCCNC(=O)OC(C)(C)C)c(C(=O)O)c1CC2 [Example 46],IC50,MK-3; [1],> 200 µM
same,IC50,MAPKAPK2 (MK-2); [2],92.7 µM
N#Cc1cccc(-c2cc3c(cc2O)CCc2c-3nn(CCCN)c2C(=O)O)c1 [Example 10],IC50,MK-3; [1],168 µM
same,IC50,MAPKAPK2 (MK-2); [2],5.35 µM
NCc1cccc(-c2ccc(CCNCCCn3nc4c(c3C(=O)O)CCc3cnccc3-4)cc2)c1 [Example 67],IC50,MK-3,10 µM
same,IC50,MAPKAPK2 (MK-2); read-out: MK-2 Avg. IC50,0.663 µM
O=C(O)c1c2c(nn1CCO)-c1cn[nH]c1CC2 [Example 37],IC50,MK-3; [3],≥ 200 µM
same,IC50,MAPKAPK2 (MK-2); [4],139 µM
O=C1NCCn2nc3c(c21)CCc1cnc(/C=C/c2ccccc2)cc1-3 [Example 36],IC50,MK-3,11.5 µM
same,IC50,MAPKAPK2 (MK-2); read-out: MK-2 Avg. IC50,0.21 µM
O=C1NCCn2nc3c(c21)CCc1cnc(-c2cccc(O)c2)cc1-3 [Example 27],IC50,MK-3,2.51 µM
same,IC50,MAPKAPK2 (MK-2); read-out: MK-2 Avg. IC50,0.148 µM
CCOC(=O)c1[nH]nc2c1CCc1cc(O)ccc1-2 [Example 70],IC50,MK-3; [1],> 200 µM
same,IC50,MAPKAPK2 (MK-2); [2],176 µM
NCCCn1nc2c(c1C(=O)O)CCc1cnc(/C=C/c3ccccc3)cc1-2 [Example 33],IC50,"MK-3; Table 5, other cyclic pyrazole MK-2 inhibiting compounds",0.528 µM
same,IC50,"MAPKAPK2 (MK-2); Table 5, other cyclic pyrazole MK-2 inhibiting compounds, read-out: MK-2 Avg. IC50",0.0329 µM
O=C(O)c1c2c(nn1CCCNCCc1ccc(-c3ccoc3)cc1)-c1ccncc1CC2 [Example 23],IC50,MK-3,2.62 µM
same,IC50,MAPKAPK2 (MK-2); read-out: MK-2 Avg. IC50,0.126 µM
CCOC(=O)c1nn(-c2ccccc2)c2c1CCc1c-2cnn1Cc1ccccc1 [Example 55],IC50,MK-3; [3],≥ 200 µM
same,IC50,MAPKAPK2 (MK-2); [4],≥ 200 µM
O=C(O)c1c2c(nn1CCCNCCc1ccc(Br)cc1)-c1cn[nH]c1CC2 [Example 3],IC50,MK-3; [3],20.8 µM
same,IC50,MAPKAPK2 (MK-2); [4],2.23 µM
COc1cc2c(cc1-c1cccc([N+](=O)[O-])c1)-c1nn(CCCNC(=O)OC(C)(C)C)c(C(=O)O)c1CC2 [Example 37],IC50,MK-3; [1],> 200 µM
same,IC50,MAPKAPK2 (MK-2); [2],53.7 µM
O=C(O)c1c2c(nn1CCCNCCc1cccs1)-c1cn[nH]c1CC2 [Example 7],IC50,MK-3; [3],55.2 µM
same,IC50,MAPKAPK2 (MK-2); [4],3.66 µM
O=C1NCCn2nc3c(c21)CCc1cnc(-n2ccnc2)cc1-3 [Example 13],IC50,MK-3,5.34 µM
same,IC50,MAPKAPK2 (MK-2); read-out: MK-2 Avg. IC50,0.0523 µM
COc1ccc(-n2nc(C(N)=O)c3c2-c2ccc(O)cc2CC3)cc1 [Example 158],IC50,MK-3; [1],> 200 µM
same,IC50,MAPKAPK2 (MK-2); [2],> 200 µM
CCOC(=O)c1[nH]nc2c1CCc1cc(OC)c(OC)cc1-2 [Example 167],IC50,MK-3; [1],> 200 µM
same,IC50,MAPKAPK2 (MK-2); [2],> 200 µM

# Source: patent publication US20040127492A1 (Pharmacia Corporation, priority 2002, published 2004)
